This data set can be described thus: Stability of 10-nitro oleic acid (OA-NO2) in olive oil, quantified by LC-MS/MS. Type of data set: physicochemical. How it is done: Stability experiments were conducted using Bertolli extra light olive oil. Methanol soluble impurities were extracted twice. […] Olive oil is highly hydrophobic and liposomes have been previously shown to stabilize nitrated linoleic acid. The composition of Olive oil used was as follows: total fat: 14 g, saturated fat: 9%, polyunsaturated fat: 9%, Monounsaturated Fat: 45%
First, methanol-soluble substances were extracted from olive oil by applying 6 volumes of methanol per volume of oil and vortexing for a minute. The triglyceride containing fraction was obtained and the extraction was repeated. The remaining triglycerides were dried under vacuum to eliminate remaining organic solvents. […]
At the different time points, aliquot by triplicate were obtained, fatty acids were extracted from the triglyceride matrix using a 4:1 ratio of methanol:triglyceride, diluted to a final concentration of 100 nM and quantified using liquid chromatography coupled to mass spectrometry. […] The nitrated oleic acid was detected using the multiple reaction monitoring (MRM) process in the negative ion mode performed on a 4000 QTRAP triple quadrupole (Applied Biosystems). […] The peak areas were integrated using Analyst 1.5.1 software (Applied Biosystems) and external standard curves were performed for quantification purposes.

Consider `CCCCCCCC/C(=C\CCCCCCCC(=O)O)[N+](=O)[O-]` [10-nitro oleic acid], for which the “stability in olive oil (percentage of the starting concentration)” value (750 μM in extracted Bertolli extra light olive oil, stored in the dark at 22° C., 37° C. and 50° C., periods of up to 20 days (FIG. 1: 19 days)) is listed as “stable”. Under “750 μM in olive oil, samples incubated at 22° C., 37° C., after 135 days”, the “decrease in stability after 135 days” value is given as “about 15%”.

The record behind these values is patent US8937194B2, “Topical compositions containing nitro fatty acids” (Nitromega Corp., priority 2008, dated 2015).
